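Method: 48-hour compound exposure of cells in 96-well plates, five concentrations, linear interpolation of endpoints. GI50: concentration for 50% inhibition of growth. TGI marks complete inhibition of growth.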

Test systems include UO-31 renal; ACHN renal; BT-549 breast; CCRF-CEM leukemia; U251 CNS; SK-OV-3 ovarian; NCI-H23 lung; IGROV1 ovarian.
Common to all, as to test: inhibition of tumour cell growth, NCI panel, 48 h

For the compound `O=c1cc(CNc2cc(F)cc(F)c2)c2ccc(I)cc2[nH]1`, the GI50 was 4.27 µM in the test on UO-31 renal; 0.75 µM in the test with ACHN renal; 1.02 µM with BT-549 breast; 0.498 µM in the test with CCRF-CEM leukemia; 0.574 µM in the test on U251 CNS; 1.11 µM in the test on SK-OV-3 ovarian. The GI50 was 6.36 µM in the test with NCI-H23 lung and 2.56 µM in the test with IGROV1 ovarian. In addition, the TGI with UO-31 renal is > 100 µM; in the test on ACHN renal, > 100 µM; with BT-549 breast it was > 100 µM; with CCRF-CEM leukemia it was > 57.7 µM; in the test with U251 CNS, > 100 µM; in the test with SK-OV-3 ovarian it was > 100 µM. The TGI with NCI-H23 lung and in the test on IGROV1 ovarian was > 100 µM each time.
As to `COc1ccc(Cn2nc(-c3cc(OC)c(OC)c(OC)c3)c3c2CCc2cnoc2-3)cc1OC`, the GI50 is 4.17 µM in the test with UO-31 renal; 6.12 µM with ACHN renal; 5.62 µM with BT-549 breast; 3.17 µM in the test on CCRF-CEM leukemia; 4.97 µM with U251 CNS; 4.36 µM in the test with SK-OV-3 ovarian. For the same compound, the GI50 in the test with NCI-H23 lung was 3.43 µM; in the test on IGROV1 ovarian, 7.28 µM. Moreover, the TGI with UO-31 renal is > 100 µM; with ACHN renal it was > 100 µM; with BT-549 breast, > 100 µM; with CCRF-CEM leukemia, > 100 µM; in the test on U251 CNS it was > 100 µM; with SK-OV-3 ovarian, 33 µM. For the same compound, the TGI is 64 µM in the test on NCI-H23 lung and > 100 µM in the test with IGROV1 ovarian.
For the compound `COc1cc2c(cc1OC)-c1ccc3cc4c(cc3c1N(CCN1CCCC1)C2)OCO4`, the GI50 is 1.51 µM with UO-31 renal; 0.514 µM in the test on ACHN renal; 1.6 µM in the test on BT-549 breast; 0.186 µM in the test with CCRF-CEM leukemia; 0.563 µM with U251 CNS; 0.526 µM with SK-OV-3 ovarian. In addition, the GI50 in the test with NCI-H23 lung was 0.447 µM; in the test on IGROV1 ovarian it was 0.517 µM. Further, the TGI in the test with UO-31 renal was determined as 4.09 µM; with ACHN renal, 2.43 µM; in the test on BT-549 breast it was 9.01 µM; in the test on CCRF-CEM leukemia, 4.36 µM; in the test with U251 CNS, 1.9 µM; in the test on SK-OV-3 ovarian, 5.51 µM. Besides, the values for the TGI in the test with NCI-H23 lung and in the test on IGROV1 ovarian were 2.14 µM and 2.37 µM, respectively.
For `C=C1C(=O)O[C@@H]2C1CC(=O)C(C)CC/C=C(\C)CCC[C@H](C)[C@H]2OC(C)=O` (some centres undefined), the GI50 was 11.9 µM in the test with UO-31 renal; 11.4 µM in the test on ACHN renal; 13 µM in the test on BT-549 breast; 2 µM in the test on CCRF-CEM leukemia; 13.9 µM in the test with U251 CNS; 17 µM with SK-OV-3 ovarian. Further, the GI50 is 13.9 µM in the test with NCI-H23 lung and 10.1 µM with IGROV1 ovarian. Also, the TGI in the test on UO-31 renal came to 29.5 µM; in the test with ACHN renal, 24.1 µM; in the test with BT-549 breast it was 30.2 µM; with CCRF-CEM leukemia, 4.75 µM; with U251 CNS, 28.4 µM; with SK-OV-3 ovarian, 34.1 µM. Also, the TGI in the test with NCI-H23 lung was determined as 29.5 µM; with IGROV1 ovarian, 26.3 µM.
As for `Fc1ccc(-c2nc3n(c2-c2ccncc2)CCS3)cc1`, the GI50 in the test with UO-31 renal is 8.26 µM; in the test with ACHN renal, > 25 µM; with BT-549 breast, > 25 µM; in the test on CCRF-CEM leukemia it was > 25 µM; with U251 CNS it was > 25 µM; with SK-OV-3 ovarian, > 25 µM. For the same compound, the GI50 in the test with NCI-H23 lung and with IGROV1 ovarian was > 25 µM in each case. Moreover, the TGI with UO-31 renal, in the test on ACHN renal, in the test on BT-549 breast, in the test with CCRF-CEM leukemia, with U251 CNS and in the test with SK-OV-3 ovarian was > 25 µM throughout. Further, the TGI in the test with NCI-H23 lung and with IGROV1 ovarian was > 25 µM throughout.
As for `Nc1ncnc2c1ccn2C1OC2COP(=O)(O)OC2C1O` (centres undefined), the TGI is > 100 µM with UO-31 renal; 14.2 µM in the test on ACHN renal; 24 µM in the test with BT-549 breast; 20.2 µM with CCRF-CEM leukemia; > 100 µM in the test with U251 CNS; 24.5 µM in the test on SK-OV-3 ovarian. Moreover, the TGI with NCI-H23 lung was 9.37 µM; in the test on IGROV1 ovarian it was > 31 µM.
In the case of `N#Cc1ncc(/N=C/c2ccc(N(CCCl)CCCl)cc2)s1`, the GI50 in the test on UO-31 renal was 6.26 µM; in the test on ACHN renal, 5.13 µM; with BT-549 breast it was 29.6 µM; in the test with CCRF-CEM leukemia, 16 µM; with U251 CNS it was 18.6 µM; in the test with SK-OV-3 ovarian, 27.7 µM. In addition, the GI50 is 5.53 µM in the test on NCI-H23 lung and 40.4 µM in the test on IGROV1 ovarian. Further, the TGI is 30 µM in the test on UO-31 renal; 41.6 µM in the test on ACHN renal; > 100 µM in the test with BT-549 breast; > 100 µM in the test on CCRF-CEM leukemia; > 100 µM with U251 CNS; > 100 µM in the test with SK-OV-3 ovarian. Besides, the TGI with NCI-H23 lung and with IGROV1 ovarian was > 100 µM in each case.
In the case of `CSc1nnc(CCSc2ccnc3c(C(F)(F)F)cccc23)o1`, the GI50 was 86.8 µM with UO-31 renal; > 100 µM with ACHN renal; 31.4 µM in the test with BT-549 breast; 67.9 µM with CCRF-CEM leukemia; > 100 µM with U251 CNS; > 100 µM in the test on SK-OV-3 ovarian. The GI50 is > 100 µM in the test on NCI-H23 lung and 83.2 µM in the test on IGROV1 ovarian. The TGI with UO-31 renal, in the test with ACHN renal, in the test with BT-549 breast, in the test on CCRF-CEM leukemia, with U251 CNS and in the test on SK-OV-3 ovarian was > 100 µM each time. Besides, the TGI with NCI-H23 lung and in the test on IGROV1 ovarian was > 100 µM throughout.
Take `CC(C)(C(=O)NN)c1ccccc1`: the TGI in the test with UO-31 renal, with ACHN renal, in the test with BT-549 breast, with CCRF-CEM leukemia, in the test with U251 CNS and in the test with SK-OV-3 ovarian was > 100 µM throughout. The TGI with NCI-H23 lung and in the test with IGROV1 ovarian was > 100 µM each time.
Consider `COc1ccc(C(=O)/C=C/c2ccc(Cl)cc2)cc1S(=O)(=O)Nc1c(N)nc(SC)[nH]c1=O`, for which the GI50 in the test on UO-31 renal was 1.89 µM; in the test on ACHN renal, 3.23 µM; in the test with BT-549 breast, 1.63 µM; with CCRF-CEM leukemia, 2.66 µM; in the test on U251 CNS it was 1.58 µM; in the test with SK-OV-3 ovarian it was 3.65 µM. Further, the GI50 in the test on NCI-H23 lung was 2.53 µM; in the test on IGROV1 ovarian it was 3.25 µM. Further, the TGI is 4.53 µM in the test on UO-31 renal; 12.1 µM in the test with ACHN renal; 3.17 µM with BT-549 breast; 8.97 µM in the test with CCRF-CEM leukemia; 3.12 µM with U251 CNS; 13.4 µM in the test on SK-OV-3 ovarian. In addition, the TGI in the test on NCI-H23 lung stood at 6.36 µM; in the test with IGROV1 ovarian it was 11.9 µM.
